Assay results: US20240199598A1 (MITOIMMUNE THERAPEUTICS INC., priority 2021, published 2024)
Like-named read-outs stand apart in the source and are kept apart here.

How the values were obtained:
[1] = Stability test of Crystalline form III of sulfate (light, dark, 60° C., 40° C./75% RH); format: physicochemical
Procedure: The chemical and physical stability of Crystalline form III were studied under conditions of light, light-shielding, 60° C. and 40° C./75% RH for 1 month. […] In the light stability test, the crystalline form was stored in a light stability test chamber without a lid and thus exposed to a total illuminance of 1.2 million lux-hr, and a sample vial completely covered with an aluminum foil was regarded as a light-shielded control (Dark control). Appearance by visual observation for 2 weeks, 1 month, 2 months and 3 months was recorded, and purity assessment and XPRD data collection for residual solid contents were performed.

[2] = Maintenance of Crystalline form III under melting-cooling, water sorption and desorption, compressive behavior and grinding tests (XRPD); format: physicochemical; details: melting-cooling method
Procedure: 10 mg of a sample was placed in a mesh stainless steel basket using SMS DVS Advantage 1. The entire experimental cycle consists of two scans (water sorption and desorption) at a constant temperature (25° C.) and 10% RH intervals in the range of 40 to 90% (60 to 360 minutes for each humidity level).
XRPD result, no novel crystalline form was produced.
As an XRPD result, no novel crystalline form was produced.
As a result of the XRPD test, no novel crystalline form was produced.
As a result of the XRPD test, no novel pattern was produced.

pKa, UV-metric method = format: physicochemical
From the text: As shown in the following Table 2, each combination of counter ions and solvents were given a batch number.

[3] = Solubility of compound of Chemical Formula 1 in various solvents; format: physicochemical
From the text: Very low solubility in various solvents adversely affects pharmaceutical development that requires the production of a finished product in a completely dissolved state.

[4] = Physicochemical stability test of free form and 5 salts (60° C., 40° C./75% humidity, light); details: for Final purity: HPLC
Procedure: In the case of a light stability test, the vial was stored in a light stability test chamber while being not closed with a lid, and exposed to a total illuminance of 1.2 million lux-hr. A vial light-shielded with aluminum foil was used as an experimental control (Dark control). For stability assessment, state assessment by visual observation, purity assessment using HPLC, and crystalline form assessment using XRPD were conducted, and results thereof are shown in Table 7. […] In FIGS. 19 to 30, “Light” represents light irradiation condition results.

[5] = Oral administration pharmacokinetic test using mice
[6] = 1.2 million lux-hr, listed as Free form of compound 1
[7] = 40° C./75% RH, 1 w, listed as Free form of compound 1
[8] = 60° C., 1 w, listed as Free form of compound 1
[9] = Dark control, listed as Free form of compound 1

## O=S1(=O)CCN(Cc2cc(NC3CCOCC3)c3[nH]c(-c4ccccc4)cc3c2)CC1 [Crystalline form III]
[1]; 40° C. for 1 month
  Purity decrease: 0.67%
[1]; 40° C./75% RH, 1 M
  Appearance: White powder
  Assay: 102.84%
  Final purity: 98.71%
  Purity change: −0.67%
  XRPD patterns: Pattern III
[1]; 40° C./75% RH, 2 w
  Appearance: White powder
  Assay: 99.42%
  Final purity: 98.77%
  Purity change: −0.61%
  XRPD patterns: Pattern III
[1]; 60° C. for 1 month
  Stability (in words): stable
[1]; 60° C., 1 M
  Appearance: White powder
  Assay: 106.79%
  Final purity: 99.25%
  Purity change: −0.13%
  XRPD patterns: Pattern III
[1]; 60° C., 2 w
  Appearance: White powder
  Assay: 101.08%
  Final purity: 99.24%
  Purity change: −0.14%
  XRPD patterns: Pattern III
[1]; Dark (light-shielded control)
  Appearance: White powder
  Assay: 103.17%
  Final purity: 99.33%
  Purity change: −0.05%
  XRPD patterns: Pattern III
[1]; Initial
  Appearance: White powder
  Final purity: 99.38%
  XRPD patterns: Pattern III
[1]; Light (1.2 million lux-hr)
  Appearance: Taupe powder
  Assay: 101.77%
  Final purity: 99.38%
  Purity change: −0.00%
  XRPD patterns: Pattern III
[1]; light and light-shielding conditions
  Stability (in words): stable
[2]
  Stability of the crystalline form (in words): stable under each test condition

## O=S1(=O)CCN(Cc2cc(NC3CCOCC3)c3[nH]c(-c4ccccc4)cc3c2)CC1 [compound of Chemical Formula 1, 5-[(1,1-dioxido-4-thiomorpholinyl)methyl]-2-phenyl-N-(tetrahydro-2H-pyran-4-yl)-1H-indol-7-amine]
pKa, UV-metric method
  pKa: 4.5
[3]; Heptane, 25° C.
  solubility: <LOQ
[3]; Heptane, 50° C.
  solubility: <LOQ
[3]; Water, 25° C., read-out: Solubility
  solubility: 1 µg/mL
[3]; Water, 50° C., read-out: Solubility
  solubility: 46 µg/mL
[3]; aqueous with cosolvent or surfactant or cyclodextrin, Acetic acid-water (1:1), 25° C., read-out: Solubility
  solubility: 52800 µg/mL
[3]; aqueous with cosolvent or surfactant or cyclodextrin, Acetic acid-water (1:1), 50° C., read-out: Solubility
  solubility: 75600 µg/mL
[3]; aqueous with cosolvent or surfactant or cyclodextrin, Acetone-water (1:2), 25° C., read-out: Solubility
  solubility: 80 µg/mL
[3]; aqueous with cosolvent or surfactant or cyclodextrin, Acetone-water (1:2), 50° C., read-out: Solubility
  solubility: 160 µg/mL
[3]; aqueous with cosolvent or surfactant or cyclodextrin, MeOH/water = 1:1 (v/v), 25° C., read-out: Solubility
  solubility: 30 µg/mL
[3]; aqueous with cosolvent or surfactant or cyclodextrin, MeOH/water = 1:1 (v/v), 50° C., read-out: Solubility
  solubility: 80 µg/mL
[3]; organic solvent or mixture, 1-Butanol, 25° C., read-out: Solubility
  solubility: 650 µg/mL
[3]; organic solvent or mixture, 1-Butanol, 50° C., read-out: Solubility
  solubility: 1000 µg/mL
[3]; organic solvent or mixture, 2-Methyltetrahydrofuran (2-MeTHF), 25° C., read-out: Solubility
  solubility: 2780 µg/mL
[3]; organic solvent or mixture, 2-Methyltetrahydrofuran (2-MeTHF), 50° C., read-out: Solubility
  solubility: 3410 µg/mL
[3]; organic solvent or mixture, Acetone, 25° C., read-out: Solubility
  solubility: 5290 µg/mL
[3]; organic solvent or mixture, Acetone, 50° C., read-out: Solubility
  solubility: 17500 µg/mL
[3]; organic solvent or mixture, Acetonitrile (ACN), 25° C., read-out: Solubility
  solubility: 3090 µg/mL
[3]; organic solvent or mixture, Acetonitrile (ACN), 50° C., read-out: Solubility
  solubility: 4040 µg/mL
[3]; organic solvent or mixture, Chloroform (CHCl3), 25° C., read-out: Solubility
  solubility: 4700 µg/mL
[3]; organic solvent or mixture, Chloroform (CHCl3), 50° C., read-out: Solubility
  solubility: 4620 µg/mL
[3]; organic solvent or mixture, Dimethyl sulfoxide (DMSO), 25° C., read-out: Solubility
  solubility: 43400 µg/mL
[3]; organic solvent or mixture, Dimethyl sulfoxide (DMSO), 50° C., read-out: Solubility
  solubility: 238000 µg/mL
[3]; organic solvent or mixture, Ethanol (EtOH), 25° C., read-out: Solubility
  solubility: 1410 µg/mL
[3]; organic solvent or mixture, Ethanol (EtOH), 50° C., read-out: Solubility
  solubility: 1080 µg/mL
[3]; organic solvent or mixture, Ethyl acetate (EtOAc), 25° C., read-out: Solubility
  solubility: 1360 µg/mL
[3]; organic solvent or mixture, Ethyl acetate (EtOAc), 50° C., read-out: Solubility
  solubility: 1860 µg/mL
[3]; organic solvent or mixture, Isopropanol (IPA), 25° C., read-out: Solubility
  solubility: 320 µg/mL
[3]; organic solvent or mixture, Isopropanol (IPA), 50° C., read-out: Solubility
  solubility: 540 µg/mL
[3]; organic solvent or mixture, Isopropyl acetate (iPrOAc), 25° C., read-out: Solubility
  solubility: 710 µg/mL
[3]; organic solvent or mixture, Isopropyl acetate (iPrOAc), 50° C., read-out: Solubility
  solubility: 910 µg/mL
[3]; organic solvent or mixture, Methanol (MeOH), 25° C., read-out: Solubility
  solubility: 590 µg/mL
[3]; organic solvent or mixture, Methanol (MeOH), 50° C., read-out: Solubility
  solubility: 1150 µg/mL
[3]; organic solvent or mixture, Methyl ethyl ketone (MEK), 25° C., read-out: Solubility
  solubility: 6080 µg/mL
[3]; organic solvent or mixture, Methyl ethyl ketone (MEK), 50° C., read-out: Solubility
  solubility: 8120 µg/mL
[3]; organic solvent or mixture, Methyl isobutyl ketone (MIBK), 25° C., read-out: Solubility
  solubility: 2100 µg/mL
[3]; organic solvent or mixture, Methyl isobutyl ketone (MIBK), 50° C., read-out: Solubility
  solubility: 2820 µg/mL
[3]; organic solvent or mixture, Methyl tert-butyl ether (MTBE), 25° C., read-out: Solubility
  solubility: 60 µg/mL
[3]; organic solvent or mixture, Methyl tert-butyl ether (MTBE), 50° C., read-out: Solubility
  solubility: 70 µg/mL
[3]; organic solvent or mixture, N,N-dimethylformamide (DMF), 50° C., read-out: Solubility
  solubility: 333000 µg/mL
[3]; organic solvent or mixture, N-methyl pyrrolidone (NMP), 25° C., read-out: Solubility
  solubility: 160000 µg/mL
[3]; organic solvent or mixture, N-methyl pyrrolidone (NMP), 50° C., read-out: Solubility
  solubility: 192000 µg/mL
[3]; organic solvent or mixture, Tetrahydrofuran (THF), 25° C., read-out: Solubility
  solubility: 17400 µg/mL
[3]; organic solvent or mixture, Tetrahydrofuran (THF), 50° C., read-out: Solubility
  solubility: 16300 µg/mL
[3]; organic solvent or mixture, Toluene, 25° C., read-out: Solubility
  solubility: 20 µg/mL
[3]; organic solvent or mixture, Toluene, 50° C., read-out: Solubility
  solubility: 20 µg/mL
[4]; 1.2 million lux-hr (light stability), listed as Free form of compound 1
  Appearance: White powder
[4]; [6]
  Final purity: 99.89%
  Assay: 107.41%
  Purity change: +0.13%
  XRPD patterns: Pattern A
[4]; [7]
  Final purity: 99.95%
  Assay: 110.59%
  Purity change: +0.19%
  XRPD patterns: Pattern A
[4]; 40° C./75% RH, 1 w, summary Table 9, listed as Free form of compound of Chemical Formula 1
  Chemical stability (purity change %/1 w), 40° C./75% RH: 0.19%
[4]; [8]
  Final purity: 99.94%
  Assay: 105.89%
  Purity change: +0.18%
  XRPD patterns: Pattern A
[4]; 60° C., 1 w, summary Table 9, listed as Free form of compound of Chemical Formula 1
  Chemical stability (purity change %/1 w), 60° C.: 0.18%
[4]; Dark control (light-shielded vial)
  Appearance: White powder
[4]; [9]
  Final purity: 99.94%
  Assay: 109.40%
  Purity change: +0.18%
  XRPD patterns: Pattern A
[4]; light stability, summary Table 9, listed as Free form of compound of Chemical Formula 1
  Chemical stability (purity change %/1 w), Light stability: 0.13%
[5]; mice, oral, 10 mg/kg, listed as Free
  Cmax: 1015.2 ng/mL
[5]; mice, oral, 10 mg/kg, listed as free form
  t½: 72 min
[5]; mice, oral, 10 mg/kg, listed as free form of the compound of Chemical Formula 1, 10 mg/kg
  AUClast: 3603.9 ng·h/mL
[5]; mice, oral, summary Table 9, listed as Free form of compound of Chemical Formula 1
  Pharmacokinetic test, t½: 60 min
[5]; mouse, in vivo, po, 10 mg/kg
  Tmax: 30 min
